# Measurements as given in patent US9018381B2, “Chemical compounds” (AstraZeneca AB, priority 2010, dated 2015).
# Experiments:
# Bcl-XL = Bcl-XL (Homo sapiens (Human), UniProt Q07817); assay: Bcl-XL FP assay (fluorescence polarization competitive binding); conditions: C-terminal 6×HIS tagged Bcl-XL (aa 1-209), FITC-Bim BH-3 peptide tracer
# Excerpt: (§1) Bcl-xL and Bcl-2 FP binding affinity of compound(s) of Formulae (I), (I-a), (I-b), (I-c), (I-d) and/or (I-e) may be determined using a variety of known methods. One such assay is a sensitive and quantitative in vitro binding assay using fluorescence polarization (“FP”) described by Wang, J.-L.; Zhang, Z-J.; Choksi, S.; Sjam. S.; Lu, Z.; Croce, C. M.; Alnemri, E. S.; Komgold, R.; Huang, Z. Cell permeable Bcl-2 binding peptides: a chemical approach to apoptosis induction in tumor cells. Cancer Res. 2000, 60, 1498-1502).
# (§2) Additionally, the binding affinity of compound(s) of Formulae (I), (I-a), (I-b), (I-c), (I-d) and/or (I-e) to Bcl-2 protein in vitro was determined by a competitive binding assay based on fluorescence polarization. For example, fluorescence polarization (“FP”) assays may be developed using a c-terminal 6×HIS tagged Bcl-2 (aa 1-204) and a C-terminal 6×HIS tagged Bcl-XL (aa 1-209). […] Dilutions of either Bcl-2 (1.3 nM) or Bcl-XL (0.8 nM) may be added to serial dilutions of antagonist and incubated for one hour prior to the addition of 2 nM of fluorescent peptide tracer (Anaspec, Fremont, Calif.) in the assay buffer. Final assay buffer conditions may be 20 mM HEPES, pH 7.5, 1 mM DTT, 0.005% Tween-20 and 50 mM NaCl. Samples may be read after 20-minute incubation. Fluorescence polarization values may be plotted as a function of the antagonist concentration.
# Bcl-2 = Bcl-2 (Homo sapiens (Human), UniProt P10415); assay: Bcl-2 FP assay (fluorescence polarization competitive binding); conditions: c-terminal 6×HIS tagged Bcl-2 (aa 1-204), FITC-Bim BH-3 peptide tracer
# Bcl-2, sequence (P10415 1-204): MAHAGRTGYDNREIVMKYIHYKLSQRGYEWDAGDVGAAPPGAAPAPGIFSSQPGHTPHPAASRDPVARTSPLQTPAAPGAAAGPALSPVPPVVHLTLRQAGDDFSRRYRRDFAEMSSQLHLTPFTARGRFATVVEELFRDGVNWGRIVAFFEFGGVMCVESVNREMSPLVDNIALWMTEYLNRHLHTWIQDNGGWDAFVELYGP
# Excerpt: as §1, §2
# Bcl-XL, sequence (Q07817 1-209): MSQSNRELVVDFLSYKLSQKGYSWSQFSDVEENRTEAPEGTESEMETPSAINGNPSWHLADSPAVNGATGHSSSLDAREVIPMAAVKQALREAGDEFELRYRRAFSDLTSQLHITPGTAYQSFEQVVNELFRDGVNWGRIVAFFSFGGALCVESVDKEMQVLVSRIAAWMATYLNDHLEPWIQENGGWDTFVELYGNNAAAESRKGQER
smiles,measurement,setting,value
"O=C(NS(=O)(=O)c1ccc(N[C@H](CCN2CCN(C[C@H](O)CF)CC2)CSc2ccccc2)c(S(=O)(=O)C(F)(F)F)c1)c1ccc(N2CCC([C@@H](O)c3ccccc3-c3ccc(Cl)cc3)CC2)cc1 (single isomer, unassigned) [Example 6]",IC50,Bcl-XL,2 nM
same,IC50,Bcl-2,1 nM
